{"source": "patent US20030180777A1", "about": "“Rapid identification of transcriptional regulatory domains” (priority 2002, published 2003)", "assay_type_in_all_cases": "cell-based", "key": {"P2X7 [1]": {"molecular_target": "T1, P2X7 (Mus musculus, UniProt Q9Z1M0)", "T1 construct": "mouse Neuro-2A cells (expressing P2X7); endogenous in cells; host or cells: mouse Neuro-2A cells", "T1 sequence (Q9Z1M0 1-595)": "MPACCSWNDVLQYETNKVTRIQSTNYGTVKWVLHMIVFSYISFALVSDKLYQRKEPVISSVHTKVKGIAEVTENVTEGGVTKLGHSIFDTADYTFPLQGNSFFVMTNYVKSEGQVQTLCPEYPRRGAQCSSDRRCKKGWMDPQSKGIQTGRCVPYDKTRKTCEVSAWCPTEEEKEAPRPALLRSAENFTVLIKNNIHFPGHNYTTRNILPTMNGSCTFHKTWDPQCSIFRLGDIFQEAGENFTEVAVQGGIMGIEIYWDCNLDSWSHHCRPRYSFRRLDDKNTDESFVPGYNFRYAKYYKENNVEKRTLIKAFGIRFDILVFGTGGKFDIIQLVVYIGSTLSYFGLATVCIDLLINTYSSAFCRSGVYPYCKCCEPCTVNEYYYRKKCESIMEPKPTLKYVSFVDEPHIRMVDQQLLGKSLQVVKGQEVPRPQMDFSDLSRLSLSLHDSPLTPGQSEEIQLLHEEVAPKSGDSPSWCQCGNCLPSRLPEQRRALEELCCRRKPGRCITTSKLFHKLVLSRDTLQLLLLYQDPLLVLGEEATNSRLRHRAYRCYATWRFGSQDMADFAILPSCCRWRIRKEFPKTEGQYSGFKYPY", "assay": "BzATP-induced YO-PRO-1 uptake in Neuro-2A cells by flow cytometry", "settings": "0.2 mM BzATP, FIG. 1 left panel", "protocol": "ZFP/KOX-1-expressing cells were also assayed for P2X7 activity by measuring their ability to take up the DNA-binding dye YO-PRO-1, as follows. Seven days after the initial BzATP treatment, pools of clones containing 2-5×10^5 cells were incubated with 0.2 mM BzATP for 10 minutes in HKS Buffer (125 mM KCl, 1 mM EDTA, 5 mM glucose, 20 mM HEPES-KOH, pH 7.4). YO-PRO-1 (Molecular Probes, Inc., Eugene, Oreg.) was added to a final concentration of 5 μM. After an additional 25 min incubation in the presence of the dye, the cells were washed with PBS, collected by centrifugation, resuspended in PBS, and analyzed by FACS on a Beckman-Coulter EPICS XL flow cytometer."}, "P2X7 [2]": {"molecular_target": "T1, P2X7", "assay": "BzATP-induced death of Neuro-2A cells", "protocol": "To test this selection method, Neuro-2A cells were transiently transfected with empty vector (see Example 3 supra) or with a plasmid expressing a KOX1 repressor domain linked to the P2X7-targeted zinc finger binding domain ZFP #5493. 48 hours after transfection, cells were detached from the plate with Trypsin-EDTA, collected by centrifugation and resuspended in HKS assay buffer (125 mM KC1, 1 mM EDTA, 5 mM glucose, 20 mM HEPES, pH 7.4 adjusted with KOH). Resuspended cells were mixed with BzATP (final concentrations ranging from 0 to 1 mM) and plated onto 6 well plates (1×10^5 cells/well in 1 ml HKS). After a 2h incubation at 37° C. in a cell incubator, cells were washed with PBS, and growth medium (minimal essential medium with Earle's salts and non-essential amino acids, adjusted to contain 2 mM L-glutamine, 1.5 g/L Na bicarbonate, 1.0 mM Na pyruvate and 10% fetal bovine serum) was added to plates."}, "P2X7 [3]": {"molecular_target": "T1, P2X7", "assay": "BzATP-induced EtBr uptake in Neuro-2A cells by FACS", "protocol": "To test the suitability of the P2X7 gene as a reporter for high-throughput screening for repression domains, mouse Neuro-2A cells (expressing P2X7) were transiently transfected with a plasmid expressing a zinc finger DNA-binding domain targeted to the P2X7 gene (ZFP #5493) linked to a KOX1 repression domain. Control Neuro-2A cells were transfected with a vector lacking both library sequences and ZFP-encoding sequences (i.e., empty vector). Cells were treated for 10 minutes with different concentrations of BzATP (ranging from 0 to 1 mM), and EtBr was then added to a final concentration of 10 μM. After 20 minutes, cells were harvested by centrifugation, washed in PBS and analyzed by FACS."}}, "data": [{"substance": "benzoylbenzoyl ATP [BzATP]", "values": [{"measurement": "YO-PRO-1 uptake by control uninfected cells in the presence of BzATP", "setting": "P2X7 [1]", "result": "substantial amounts of YO-PRO-1"}, {"measurement": "cell death at relatively low concentrations of BzATP", "setting": "P2X7 [2]; BzATP >20 μM, cells transfected with either empty vector or the ZFP-KOX construct", "result": "some death of cells"}, {"measurement": "survival of cells transfected with empty vector", "setting": "P2X7 [2]; BzATP concentrations >100 μM", "result": "almost no survival"}, {"measurement": "EtBr accumulation at higher concentrations of BzATP", "setting": "P2X7 [3]; BzATP above 0.04 mM, range tested up to 1 mM", "result": "induced significant accumulation of EtBr"}, {"measurement": "EtBr uptake at low concentrations of BzATP", "setting": "P2X7 [3]; BzATP up to 0.04 mM", "result": "did not induce significant uptake of EtBr"}]}]}
